Results from ChEMBL document CHEMBL1133256, “6-Bicyclopiperazinyl-1-arylsulfonylindoles and 6-bicyclopiperidinyl-1-arylsulfonylindoles derivatives as novel, potent, and selective 5-HT6 receptor antagonists” (Bioorg Med Chem Lett, 2000).
One block for each compound: values may come before it.

What was measured:
[1] = molecular target: 5-hydroxytryptamine receptor 6 (Homo sapiens, UniProt P50406); assay: Displacement of [3H]LSD from human 5-hydroxytryptamine 6 receptor expressed in HEK 293 cells; type: cell-based, HEK293
[2] = molecular target: 5-hydroxytryptamine receptor 2A (Homo sapiens) (UniProt P28223); assay: In vitro binding affinity against human 5-hydroxytryptamine 2A receptor at a concentration of 100 (nM)
[3] = molecular target: T1, 5-hydroxytryptamine receptor 1F (Homo sapiens) (UniProt P30939); assay: In vitro binding affinity against human 5-hydroxytryptamine 1F receptor at a concentration of 100 (nM)
T1 sequence (whole entry): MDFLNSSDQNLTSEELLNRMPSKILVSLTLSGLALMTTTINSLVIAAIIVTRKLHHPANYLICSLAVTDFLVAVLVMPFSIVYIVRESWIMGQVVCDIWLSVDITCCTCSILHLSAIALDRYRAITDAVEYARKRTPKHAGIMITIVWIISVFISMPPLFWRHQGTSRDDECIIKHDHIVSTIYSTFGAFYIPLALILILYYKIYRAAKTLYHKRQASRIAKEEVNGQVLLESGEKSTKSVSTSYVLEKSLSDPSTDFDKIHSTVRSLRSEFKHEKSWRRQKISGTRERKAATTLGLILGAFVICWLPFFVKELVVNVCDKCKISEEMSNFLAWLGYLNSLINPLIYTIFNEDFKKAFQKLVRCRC

[4] = molecular target: T2, 5-hydroxytryptamine receptor 1A (Homo sapiens) (UniProt P08908); assay: In vitro binding affinity against human 5-hydroxytryptamine 1A receptor at a concentration of 100 (nM)
T2 sequence (whole entry): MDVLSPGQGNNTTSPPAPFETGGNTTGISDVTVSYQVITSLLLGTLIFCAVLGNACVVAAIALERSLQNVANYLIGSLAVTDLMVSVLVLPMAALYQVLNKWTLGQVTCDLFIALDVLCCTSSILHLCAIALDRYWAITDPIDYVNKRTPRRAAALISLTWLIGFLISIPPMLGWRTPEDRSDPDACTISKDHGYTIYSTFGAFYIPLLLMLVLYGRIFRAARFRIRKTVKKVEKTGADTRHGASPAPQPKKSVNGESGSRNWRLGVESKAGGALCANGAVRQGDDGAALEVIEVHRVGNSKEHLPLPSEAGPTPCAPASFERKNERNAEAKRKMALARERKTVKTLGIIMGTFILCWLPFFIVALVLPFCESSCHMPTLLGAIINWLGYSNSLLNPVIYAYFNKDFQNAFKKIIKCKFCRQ

[5] = molecular target: 5-hydroxytryptamine receptor 2B (Homo sapiens) (UniProt P41595); assay: In vitro binding affinity against human 5-HT2B receptor at a concentration of 100 (nM)
[6] = molecular target: 5-hydroxytryptamine receptor 7 (Homo sapiens) (UniProt P34969); assay: In vitro binding affinity against human 5-hydroxytryptamine 7 receptor at a concentration of 100 (nM)
[7] = molecular target: T3, 5-hydroxytryptamine receptor 2C (Homo sapiens) (UniProt P28335); assay: In vitro binding affinity against human 5-hydroxytryptamine 2C receptor at a concentration of 100 (nM)
T3 sequence (whole entry): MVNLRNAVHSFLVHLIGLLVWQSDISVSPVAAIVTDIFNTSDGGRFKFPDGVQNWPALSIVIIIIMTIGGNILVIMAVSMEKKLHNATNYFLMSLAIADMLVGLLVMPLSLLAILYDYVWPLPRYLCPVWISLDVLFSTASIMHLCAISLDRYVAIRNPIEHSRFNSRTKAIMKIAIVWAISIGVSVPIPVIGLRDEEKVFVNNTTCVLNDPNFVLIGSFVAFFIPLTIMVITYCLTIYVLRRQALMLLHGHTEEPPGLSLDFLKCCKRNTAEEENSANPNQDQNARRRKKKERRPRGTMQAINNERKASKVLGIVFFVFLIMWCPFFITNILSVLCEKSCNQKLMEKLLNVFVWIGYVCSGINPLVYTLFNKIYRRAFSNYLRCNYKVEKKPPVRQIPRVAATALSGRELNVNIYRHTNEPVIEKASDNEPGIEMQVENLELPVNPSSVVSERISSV

[8] = molecular target: D(3) dopamine receptor (Homo sapiens) (UniProt P35462); assay: In vitro binding affinity against human Dopamine receptor D3 at a concentration of 100 (nM)
[9] = molecular target: D(1A) dopamine receptor (Homo sapiens) (UniProt P21728); assay: In vitro binding affinity against human Dopamine receptor D1 at a concentration of 100 (nM)
[10] = molecular target: T4, D(4) dopamine receptor (Homo sapiens) (UniProt P21917); assay: In vitro binding affinity against human Dopamine receptor D4 at a concentration of 100 (nM)
T4 sequence (whole entry): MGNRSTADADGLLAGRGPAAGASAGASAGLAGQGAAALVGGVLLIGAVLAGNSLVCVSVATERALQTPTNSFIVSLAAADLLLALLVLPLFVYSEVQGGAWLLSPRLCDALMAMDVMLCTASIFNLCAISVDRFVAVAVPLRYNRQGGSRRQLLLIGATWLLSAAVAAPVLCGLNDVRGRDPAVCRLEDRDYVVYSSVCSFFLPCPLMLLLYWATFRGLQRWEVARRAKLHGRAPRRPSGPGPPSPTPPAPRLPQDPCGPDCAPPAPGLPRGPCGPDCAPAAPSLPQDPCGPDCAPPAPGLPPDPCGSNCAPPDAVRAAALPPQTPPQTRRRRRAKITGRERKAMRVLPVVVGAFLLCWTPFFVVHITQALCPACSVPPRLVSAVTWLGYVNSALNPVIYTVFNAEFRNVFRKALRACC

[11] = molecular target: D(1B) dopamine receptor (Homo sapiens) (UniProt P21918); assay: In vitro binding affinity against human D5 receptor at a concentration of 100 (nM)
[12] = molecular target: 5-hydroxytryptamine receptor 1D (Homo sapiens) (UniProt P28221); assay: In vitro binding affinity against human 5-hydroxytryptamine 1D receptor at a concentration of 100 (nM)
[13] = molecular target: 5-hydroxytryptamine receptor 1B (Homo sapiens) (UniProt P28222); assay: In vitro binding affinity against human 5-hydroxytryptamine 1B receptor at a concentration of 100 (nM)
[14] = molecular target: Muscarinic acetylcholine receptors; M1 & M2 (Homo sapiens) (UniProt P11229+P08172); assay: In vitro binding affinity against human Muscarinic acetylcholine receptor M1- Muscarinic acetylcholine receptor M2 at a concentration of 100 (nM); type: protein assay
[15] = molecular target: Adrenergic receptor alpha-1 (Homo sapiens) (UniProt P35348+P25100+P35368); assay: In vitro binding affinity against human Alpha-1 adrenergic receptor at a concentration of 100 (nM); type: protein assay
[16] = molecular target: D(2) dopamine receptor (Homo sapiens) (UniProt P14416); assay: In vitro binding affinity against human Dopamine receptor D2 at a concentration of 100 (nM)
Chain of D(2) dopamine receptor (Homo sapiens) (P14416 whole entry): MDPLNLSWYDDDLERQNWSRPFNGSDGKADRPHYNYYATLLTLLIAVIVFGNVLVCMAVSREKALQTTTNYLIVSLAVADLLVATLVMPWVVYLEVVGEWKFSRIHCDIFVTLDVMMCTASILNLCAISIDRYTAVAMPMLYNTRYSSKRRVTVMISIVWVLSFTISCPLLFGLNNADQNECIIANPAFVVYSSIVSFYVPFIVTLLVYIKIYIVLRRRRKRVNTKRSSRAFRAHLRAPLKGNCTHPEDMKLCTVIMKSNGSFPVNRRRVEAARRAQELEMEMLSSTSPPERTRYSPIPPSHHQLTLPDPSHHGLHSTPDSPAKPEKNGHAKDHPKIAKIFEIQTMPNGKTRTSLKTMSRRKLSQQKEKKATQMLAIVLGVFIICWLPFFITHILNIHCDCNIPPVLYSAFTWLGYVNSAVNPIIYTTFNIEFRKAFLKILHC

Chain of 5-hydroxytryptamine receptor 6 (P50406 whole entry): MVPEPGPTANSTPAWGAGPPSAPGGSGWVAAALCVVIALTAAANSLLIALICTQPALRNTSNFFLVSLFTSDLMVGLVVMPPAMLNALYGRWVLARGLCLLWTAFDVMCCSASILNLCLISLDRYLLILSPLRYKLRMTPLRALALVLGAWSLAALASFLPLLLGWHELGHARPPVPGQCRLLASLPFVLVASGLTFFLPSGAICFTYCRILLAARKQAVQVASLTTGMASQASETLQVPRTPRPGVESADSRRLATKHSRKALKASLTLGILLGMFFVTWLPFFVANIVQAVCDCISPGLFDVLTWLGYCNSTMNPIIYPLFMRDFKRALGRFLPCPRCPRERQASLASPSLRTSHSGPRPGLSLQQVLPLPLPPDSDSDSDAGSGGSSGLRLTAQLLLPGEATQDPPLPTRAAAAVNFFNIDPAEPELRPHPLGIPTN
Chain of D(1B) dopamine receptor (Homo sapiens) (P21918 whole entry): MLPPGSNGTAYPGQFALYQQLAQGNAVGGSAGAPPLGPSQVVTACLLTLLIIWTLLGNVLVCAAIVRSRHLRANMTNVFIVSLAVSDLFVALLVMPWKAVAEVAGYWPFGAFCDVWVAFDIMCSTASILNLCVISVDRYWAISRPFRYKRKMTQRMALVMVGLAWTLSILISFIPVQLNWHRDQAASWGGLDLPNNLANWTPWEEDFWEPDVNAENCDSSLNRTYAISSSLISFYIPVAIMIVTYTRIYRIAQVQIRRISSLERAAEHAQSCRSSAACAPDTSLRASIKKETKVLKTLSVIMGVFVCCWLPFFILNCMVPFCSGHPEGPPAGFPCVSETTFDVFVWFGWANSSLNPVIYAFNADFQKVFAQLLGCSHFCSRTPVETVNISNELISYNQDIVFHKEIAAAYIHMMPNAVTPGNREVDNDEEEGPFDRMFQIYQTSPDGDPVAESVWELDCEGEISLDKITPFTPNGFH
Chain of 5-hydroxytryptamine receptor 7 (Homo sapiens) (P34969 whole entry): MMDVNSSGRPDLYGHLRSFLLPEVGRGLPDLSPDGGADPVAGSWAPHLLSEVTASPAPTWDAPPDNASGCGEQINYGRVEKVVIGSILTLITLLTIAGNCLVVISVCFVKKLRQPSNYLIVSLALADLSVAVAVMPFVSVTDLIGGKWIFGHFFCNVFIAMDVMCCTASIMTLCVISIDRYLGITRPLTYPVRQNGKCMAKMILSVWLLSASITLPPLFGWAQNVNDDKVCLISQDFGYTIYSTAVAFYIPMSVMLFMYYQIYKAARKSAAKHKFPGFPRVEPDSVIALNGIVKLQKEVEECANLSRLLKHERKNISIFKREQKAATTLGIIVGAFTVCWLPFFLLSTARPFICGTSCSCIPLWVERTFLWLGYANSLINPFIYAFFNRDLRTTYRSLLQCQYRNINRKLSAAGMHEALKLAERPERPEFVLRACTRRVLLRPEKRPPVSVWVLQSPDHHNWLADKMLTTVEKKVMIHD
Chain of 5-hydroxytryptamine receptor 2A (Homo sapiens) (P28223 whole entry): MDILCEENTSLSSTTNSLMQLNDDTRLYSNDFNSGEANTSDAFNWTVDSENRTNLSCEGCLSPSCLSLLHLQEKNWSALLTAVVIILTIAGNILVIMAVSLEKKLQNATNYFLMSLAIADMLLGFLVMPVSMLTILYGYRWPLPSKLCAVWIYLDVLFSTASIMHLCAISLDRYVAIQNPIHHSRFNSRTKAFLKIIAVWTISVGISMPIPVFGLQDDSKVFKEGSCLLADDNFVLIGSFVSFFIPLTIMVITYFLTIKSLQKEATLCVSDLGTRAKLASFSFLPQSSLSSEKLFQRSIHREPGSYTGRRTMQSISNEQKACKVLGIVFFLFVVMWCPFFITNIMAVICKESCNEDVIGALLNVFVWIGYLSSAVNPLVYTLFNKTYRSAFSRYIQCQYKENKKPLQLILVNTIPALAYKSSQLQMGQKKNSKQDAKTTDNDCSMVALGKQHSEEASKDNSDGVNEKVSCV
Chain of D(3) dopamine receptor (Homo sapiens) (P35462 whole entry): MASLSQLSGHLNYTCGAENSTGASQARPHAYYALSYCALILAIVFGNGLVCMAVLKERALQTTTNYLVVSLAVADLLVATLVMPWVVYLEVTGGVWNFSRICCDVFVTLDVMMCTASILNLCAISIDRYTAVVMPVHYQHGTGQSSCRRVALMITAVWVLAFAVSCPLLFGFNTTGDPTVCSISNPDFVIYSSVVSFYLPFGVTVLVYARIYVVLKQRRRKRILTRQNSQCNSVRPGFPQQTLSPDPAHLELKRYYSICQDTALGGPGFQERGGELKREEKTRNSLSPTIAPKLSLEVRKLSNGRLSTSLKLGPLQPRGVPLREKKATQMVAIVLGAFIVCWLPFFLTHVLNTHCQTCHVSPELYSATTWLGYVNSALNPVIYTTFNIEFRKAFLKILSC
Chain of 5-hydroxytryptamine receptor 2B (Homo sapiens) (P41595 whole entry): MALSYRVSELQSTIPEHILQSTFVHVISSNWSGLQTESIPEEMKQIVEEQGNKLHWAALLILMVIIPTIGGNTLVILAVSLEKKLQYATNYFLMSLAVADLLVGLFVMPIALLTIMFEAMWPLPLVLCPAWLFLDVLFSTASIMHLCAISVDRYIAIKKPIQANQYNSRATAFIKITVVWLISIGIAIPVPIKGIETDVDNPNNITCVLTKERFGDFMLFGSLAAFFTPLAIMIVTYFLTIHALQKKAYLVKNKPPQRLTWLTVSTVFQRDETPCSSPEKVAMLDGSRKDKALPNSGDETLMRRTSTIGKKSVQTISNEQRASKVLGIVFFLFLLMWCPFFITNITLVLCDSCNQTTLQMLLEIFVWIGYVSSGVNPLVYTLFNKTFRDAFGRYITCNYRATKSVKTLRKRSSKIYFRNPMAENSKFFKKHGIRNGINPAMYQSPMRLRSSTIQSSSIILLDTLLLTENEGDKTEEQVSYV
Chain of D(1A) dopamine receptor (Homo sapiens) (P21728 whole entry): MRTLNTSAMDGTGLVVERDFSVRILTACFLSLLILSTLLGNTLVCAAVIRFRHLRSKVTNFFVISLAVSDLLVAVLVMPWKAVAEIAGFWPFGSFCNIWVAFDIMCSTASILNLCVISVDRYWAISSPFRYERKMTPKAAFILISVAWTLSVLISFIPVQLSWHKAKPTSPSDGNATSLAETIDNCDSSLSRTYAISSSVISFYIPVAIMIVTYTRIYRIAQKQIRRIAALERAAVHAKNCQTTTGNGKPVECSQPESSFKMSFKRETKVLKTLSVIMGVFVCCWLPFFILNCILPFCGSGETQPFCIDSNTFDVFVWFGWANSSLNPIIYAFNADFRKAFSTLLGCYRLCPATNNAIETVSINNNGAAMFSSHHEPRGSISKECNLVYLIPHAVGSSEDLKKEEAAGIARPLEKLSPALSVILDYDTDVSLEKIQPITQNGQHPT
Chain of 5-hydroxytryptamine receptor 1B (Homo sapiens) (P28222 whole entry): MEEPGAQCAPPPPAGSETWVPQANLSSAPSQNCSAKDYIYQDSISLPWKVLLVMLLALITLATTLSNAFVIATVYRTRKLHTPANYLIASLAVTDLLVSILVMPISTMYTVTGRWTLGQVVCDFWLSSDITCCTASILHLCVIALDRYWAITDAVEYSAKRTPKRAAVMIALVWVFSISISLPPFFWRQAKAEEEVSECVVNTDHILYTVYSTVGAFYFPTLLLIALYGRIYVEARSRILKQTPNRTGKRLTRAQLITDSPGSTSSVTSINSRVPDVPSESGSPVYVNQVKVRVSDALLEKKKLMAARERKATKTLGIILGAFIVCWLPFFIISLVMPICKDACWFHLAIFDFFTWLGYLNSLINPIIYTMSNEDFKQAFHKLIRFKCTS
Chain of 5-hydroxytryptamine receptor 1D (Homo sapiens) (P28221 whole entry): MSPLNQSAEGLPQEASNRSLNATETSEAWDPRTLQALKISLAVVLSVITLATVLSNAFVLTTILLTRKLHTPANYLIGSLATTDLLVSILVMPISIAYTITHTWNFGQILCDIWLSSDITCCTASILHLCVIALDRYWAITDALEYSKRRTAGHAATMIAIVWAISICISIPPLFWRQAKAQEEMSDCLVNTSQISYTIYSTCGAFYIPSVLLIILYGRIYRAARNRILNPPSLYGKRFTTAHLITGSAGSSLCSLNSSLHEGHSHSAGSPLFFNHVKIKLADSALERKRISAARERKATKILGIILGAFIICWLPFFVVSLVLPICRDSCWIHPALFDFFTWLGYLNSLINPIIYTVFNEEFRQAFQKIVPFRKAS

SMILES: Cc1ccc(S(=O)(=O)n2ccc3ccc(N4CCN5CCCC5C4)cc32)cc1 (centres undefined)
Ki [1]: 3.3 nM

SMILES: O=S(=O)(c1cccc2ccccc12)n1ccc2ccc(N3CCN4CCCC4C3)cc21 (centres undefined)
inhibition [2]: 32%
inhibition [3]: 9%
inhibition [4]: 79%
inhibition [5]: 36%
inhibition [6]: 8%
inhibition [7]: 17%
inhibition [8]: 22%
inhibition [9]: 1%
inhibition [10]: 0%
inhibition [11]: 0%
inhibition [12]: 5%
inhibition [13]: 2%
inhibition [14]: 0%
inhibition [15]: 0%
inhibition [16]: 7%

SMILES: O=S(=O)(c1cccc2ccccc12)n1ccc2ccc(C3CCN4CCCC4C3)cc21 (single isomer, unassigned; less polar)
Ki [1]: 0.6 nM

SMILES: O=S(=O)(c1ccccc1)n1ccc2ccc(N3CCN4CCCCC4C3)cc21 (centres undefined)
Ki [1]: 5.7 nM

SMILES: O=S(=O)(c1cccc2ccccc12)n1ccc2ccc(C3(O)CCN4CCCC4C3)cc21 (centres undefined)
Ki [1]: 4.7 nM

More lines, now with the values ahead:

Ki [1]: 3.6 nM
SMILES: O=S(=O)(c1ccc(F)cc1F)n1ccc2ccc(N3CCN4CCCCC4C3)cc21 (centres undefined)

Ki [1]: 1.7 nM
SMILES: O=S(=O)(c1cccc2ccccc12)n1ccc2ccc(N3CCN4CCCCC4C3)cc21 (centres undefined)

Ki [1]: 4.9 nM
SMILES: Cc1ccc(S(=O)(=O)n2ccc3ccc(N4CCN5CCCCC5C4)cc32)cc1 (centres undefined)

Ki [1]: 1.3 nM
SMILES: O=S(=O)(c1cccc2ccccc12)n1ccc2ccc(C3=CCN4CCCC4C3)cc21 (centres undefined)

Ki [1]: 3 nM
SMILES: O=S(=O)(c1ccc2ccccc2c1)n1ccc2ccc(N3CCN4CCCCC4C3)cc21 (centres undefined)
